Measurements from US20050143927A1, “Method for estimating or predicting the anti-tumor activity of a compound and for estimating or predicting the tumor growth in mammals” (Pharmacia Italia S.p.A., priority 2002, published 2005).

Legend:
[1] = test system: H207 (ovarian human carcinoma); experiment: Tumor growth model for treated subjects, H207 inoculated subcutaneously in athymic nude mice (Experiment-C); type: in vivo; details: average growth curve
Experimental: The cell line H207 (ovarian human carcinoma) was inoculated subcutaneously on the back of 70 female athymic nude mice, initially weighing 17.0-25.0 g. […] Cage G2: 7 mice, treated with 3 iv-bolus of Drug-C, repeated every 7 days (therapeutic regimen q7d×3), at a dosing of 0.39 mg/kg. • III. Cage G3: 7 mice, treated with iv-bolus of Drug-C at the therapeutic regimen q7d×3, at a dosing of 0.52 mg/kg. • IV. […] Cage G6: 7 mice, treated with iv-bolus of Drug-C at the therapeutic regimen q4d×3, at a dosing of 0.39 mg/kg. • VII. Cage G8: 7 mice, treated with iv-bolus of Drug-C at the therapeutic regimen q4d×3, at a dosing of 0.52 mg/kg. • VIII. Cage G9: 7 mice, treated with 10 iv-bolus of Drug-C, subdivided in 2 cycles of treatment of 5 daily iv-bolus followed by 2 days of rest (therapeutic regimen qd×5×2 wks), at the dosing of 0.117 mg/kg each. • IX. Cage G10: 7 mice treated at the same treatment and therapeutic regimen of G4, but with the drug coming from a different batch of production.
In this case, despite the silent interval finished in correspondence of the tenth day (where the first measurement of the tumor mass was carried out), the chemotherapeutic treatment started in correspondence of the eleventh day.
The dimensions of the tumor can be taken applying different types of measurements broadly classifiable as measurements of linear dimensions, of volume (or mass) and cell number. For tumors that maintain more or less a spherical morphology, as in the case of solid tumors, the measurement of the three principal diameters results the most adequate, as well as the most practiced solution. Nevertheless, in the case of subcutaneous tumors, the tumor can be considered of spherical shape only during the initial phase of growth; in the following phases, the dimension perpendicular to the skin is generally much smaller than the percutaneous dimensions, conferring to the mass a plaque-like shape or an hemi-ellipsoidal shape. In the experiments taken into consideration, only the dimensions of the two percutaneous diameters were directly measured with vernier calipers. The third dimension was not directly measured, because of the limited accessibility (which would have required a greater invasiveness), in the assumption that two measures were anyhow sufficient to guarantee a good approximation of the tumor mass (K. Rygaard and M. Spang-Thomsen, “Quantitation and Gompertzian analysis of tumor growth”. Breast Cancer Research and Treatment, 46: 303-312,1997).
The volume of a tumor can be indirectly calculated by applying the following empirical formula: [formula] where DMIN and DMAX denote, respectively, the smallest and the largest percutaneous diameter. Such empirical formula hypothesizes that the neoplasia has an ellipsoidal shape (D. A. Cameron, W. M. Gregory, A. Bowman, E. D. C. Anderson, P. Levack, P. Forouhi and R. F. C. Leonard, “Identification of long-term survivors in primary breast cancer by dynamic modeling of tumour response”. British Journal of Cancer, 83(1): 98-103, 2000, Hammond, L. A.; Hilsenbeck, S. G.; Eckhardt, S. G.; Marty, J; Mangold, G.; MacDonald, G. R.; Rowinsky, E. K.; Von Hoff, D. D; Weitman S. Enhanced antitumour activity of 6-hydroxymethylacylfulvene in combination with topotecan or paclitaxel in the MV522 lung carcinoma xenograft model. European Journal of Cancer 2000, 36, 2430-2436) obtained by the rotation of a hemi-ellipsoid (with DMIN and DMAX as axes of the percutaneous plane) around its largest axe. Assuming δ as a constant density equal to δ=10^−3g/mm^3, the empirical expression for the mass of the neoplasia results to be: [formula] The Measurement Error Model

[2] = three-compartment PK model; known average value; cited from earlier work
[3] = test system: H207 (ovarian human carcinoma); experiment: Tumor growth model for treated subjects, H207 inoculated subcutaneously in athymic nude mice (Experiment-C); type: in vivo; details: average growth curve; remark: listed apart in the source
[4] = cage G2, 0.39 mg/kg iv-bolus q7dx3
[5] = cage G3, 0.52 mg/kg iv-bolus q7dx3
[6] = cage G4, 0.78 mg/kg iv-bolus q7dx3
[7] = cage G5, 0.26 mg/kg iv-bolus q4dx3
[8] = cage G6, 0.39 mg/kg iv-bolus q4dx3
[9] = cage G7, 0.52 mg/kg iv-bolus q4dx3
[10] = cage G8, 0.117 mg/kg iv-bolus qdx5x2wks
[11] = cage G9, 0.156 mg/kg iv-bolus qdx5x2wks
[12] = cage G10, 0.78 mg/kg iv-bolus q7dx3, drug from a different batch

C=C(Br)C(=O)Nc1cc(C(=O)Nc2cc(C(=O)Nc3cc(C(=O)Nc4cc(C(=O)NCCNC(=N)N)n(C)c4)n(C)c3)n(C)c2)n(C)c1 [Drug-C, brostallicin]
K1 (index of the tumor cells death rate) [1, 4]: 0.289 day⁻¹
K2 (index of the potency of the compound) [1, 4]: 0.1731 mL/g/day
λ0 (production rate of tumor cells, exponential phase) [1, 4]: 0.2886
λ1 (tumor cells mass produced in the time unit, linear phase) [1, 4]: 0.5183
K1 (index of the tumor cells death rate) [1, 5]: 0.2574 day⁻¹
K2 (index of the potency of the compound) [1, 5]: 0.1519 mL/g/day
λ0 (production rate of tumor cells, exponential phase) [1, 5]: 0.2757
λ1 (tumor cells mass produced in the time unit, linear phase) [1, 5]: 0.6241
K1 (index of the tumor cells death rate) [1, 6]: 0.2558 day⁻¹
K2 (index of the potency of the compound) [1, 6]: 0.1085 mL/g/day
λ0 (production rate of tumor cells, exponential phase) [1, 6]: 0.2297
λ1 (tumor cells mass produced in the time unit, linear phase) [1, 6]: 0.3193
K1 (index of the tumor cells death rate) [1, 7]: 0.2979 day⁻¹
K2 (index of the potency of the compound) [1, 7]: 0.2044 mL/g/day
λ0 (production rate of tumor cells, exponential phase) [1, 7]: 0.2728
λ1 (tumor cells mass produced in the time unit, linear phase) [1, 7]: 0.602
K1 (index of the tumor cells death rate) [1, 8]: 0.3486 day⁻¹
K2 (index of the potency of the compound) [1, 8]: 0.1698 mL/g/day
λ0 (production rate of tumor cells, exponential phase) [1, 8]: 0.2554
λ1 (tumor cells mass produced in the time unit, linear phase) [1, 8]: 0.2736
K1 (index of the tumor cells death rate) [1, 9]: 0.2488 day⁻¹
K2 (index of the potency of the compound) [1, 9]: 0.12 mL/g/day
λ0 (production rate of tumor cells, exponential phase) [1, 9]: 0.1966
λ1 (tumor cells mass produced in the time unit, linear phase) [1, 9]: 0.279
K1 (index of the tumor cells death rate) [1, 10]: 0.3766 day⁻¹
K2 (index of the potency of the compound) [1, 11]: 0.2829 mL/g/day
λ0 (production rate of tumor cells, exponential phase) [1, 11]: 0.2942
λ1 (tumor cells mass produced in the time unit, linear phase) [1, 11]: 0.1931
K1 (index of the tumor cells death rate) [1, 12]: 0.3789 day⁻¹
K2 (index of the potency of the compound) [1, 12]: 0.1558 mL/g/day
λ0 (production rate of tumor cells, exponential phase) [1, 12]: 0.2969
λ1 (tumor cells mass produced in the time unit, linear phase) [1, 12]: 0.2177
K10 [2]: 134.7 day⁻¹
K12 [2]: 42.33 day⁻¹
K13 [2]: 13.28 day⁻¹
K21 [2]: 48.7 day⁻¹
K31 [2]: 5.898 day⁻¹
Vd [2]: 0.1811 L/kg
K2 (index of the potency of the compound) [3, 10]: 0.2081 mL/g/day
λ0 (production rate of tumor cells, exponential phase) [3, 10]: 0.2611
λ1 (tumor cells mass produced in the time unit, linear phase) [3, 10]: 0.581
K1 (index of the tumor cells death rate) [3, 11]: 0.4152 day⁻¹
